Test results from patent US20130023573A1, “ALPHA-2 […] TREATING VISUAL DISORDERS MEDIATED BY CENTRAL VISUAL P[…] THE EYE” (priority 2011, published 2013).

Columns and labels:
[1] = rats, after oral dose of brimonidine tartrate (Acheampong et al., Xenobiotica 2007); cited from earlier work
rat visual cortex slices = experiment: Long-term potentiation in visual cortex slice; type: cell-based; details: LTP at 30 min after induction; for threshold dose for dose-dependent facilitation of LTP: rat visual cortex slices, drug infused 20 min before theta burst stimulation
Experimental: Following decapitation of the anesthetized rat, the brain was rapidly removed and immersed in ice-cold artificial cerebrospinal fluid (ACSF) containing (in mM) NaCl 124, KCl 3, KH2PO4 1.25, CaCl2 3.4, MgSO4 2.5, NaHCO3 26, and D-glucose 10. A block of visual cortex was created by removing the frontal ⅔ portion of the brain and the cerebellum. Coronal visual cortex slices of 350 μm thick were prepared from young adult (200-300 g) male Sprague-Dawley rats using a vibratome (VT 1000 S; Leica). The slices were maintained in an interface recording chamber perfused with preheated ACSF. Slices were continuously perfused with this solution at a rate of 1.00-1.50 ml/min while the surface of the slices was exposed to warm, humidified […] and maintained at 31±1° C. Visual cortex slices were allowed to recover for 1 hr before recording began. A single stimulating and recording electrode was placed in layer IV and III, respectively, to generate and record field excitatory postsynaptic potentials (fEPSPs). Pulses were administered at 0.05 Hz using a current that produced a fEPSP that is 50% of the maximum spike free response. An input-output (IO) curve was done to determine the stimulation needed to achieve a stable baseline. Following a 15 min stable baseline recording period, a train of 5 theta bursts (each burst containing four pulses at 100 Hz with an inter-burst interval of 200 ms) was delivered to the slice. This was repeated 2 additional times with a 1 minute inter-train interval, and the level of LTP was recorded for at least 30 min. Changes in amplitude of the synaptic response were used to measure the extent of LTP, since the amplitude was determined to be the more consistent parameter than the slope of the response. Control LTP values were obtained from slices not treated with drug. Different slices were used to study drug effects on LTP. Compound 4-bromo-N-(imidazolidin-2-ylidene)-1H-benzimidazol-5-amine or (S)-(3-(1-(1H-imidazol-4-yl)ethyl)-2-methylphenyl)methanol) was infused after 15 min baseline recording for a duration of 20 minutes followed by LTP induction. Drug washout began 5 minutes after tetanization. Recording of the amplitude before, during, and after drug infusion was continuously done at 0.05 Hz. Statistical comparisons were done with LTP values recorded at 30 minutes after induction for drug-treated vs control slices (non-paired t-test).
In brief, brain slices from primary visual cortex were prepared and recording of evoked field responses was done as described in the ‘general procedure’ section. A typical LTP run began with establishing a stable baseline, then treatment for 20 min with 4-bromo-N-(imidazolidin-2-ylidene)-1H-benzimidazol-5-amine followed by LTP induction via brief high-frequency theta burst stimulation (TBS) and drug washout 5 min after TBS, and ended after monitoring the amount of LTP for at least 30 min. Control LTP was measured in a group of separate slices within the same chamber infused with aCSF. The amount of LTP present at 30 min after induction was used to compare drug effects at different concentrations relative to the control group. […] The percent increase in LTP was shown relative to the pre-LTP baseline for each condition.
The percent increase in LTP was shown relative to the pre-LTP baseline for each condition.

Structure (SMILES)	amount found in urine [1]	LTP compared to control slices (rat visual cortex slices; 3 nM)	LTP compared to control slices (rat visual cortex slices; 30 nM)	LTP compared to control slices (rat visual cortex slices; 300 nM)	threshold dose for dose-dependent facilitation of LTP (rat visual cortex slices) [nM]	LTP compared to control slices (rat visual cortex slices; 100 nM)
Brc1c(N=C2NCCN2)ccc2[nH]cnc12 [4-bromo-N-(imidazolidin-2-ylidene)-1H-benzimidazol-5-amine]	trace amounts	significantly facilitated	significantly facilitated	significantly facilitated	3	
Cc1c(CO)cccc1[C@H](C)c1c[nH]cn1 [(S)-(3-(1-(1H-imidazol-4-yl)ethyl)-2-methylphenyl)methanol]				significantly facilitated	100	significantly facilitated
